This is an account of results in ChEMBL document CHEMBL1151441, “Antimicrobial susceptibilities and clinical sources of Dialister species” (2007).

Converted amounts (≈) assume the structure as drawn.

Format in all cases: functional
The subject of assay [1] is Dialister invisus. The assay is described as follows: Antimicrobial activity against Dialister invisus assessed as susceptibility breakpoint by CLSI method.
Assay [2] relates to Dialister pneumosintes. The assay is described as follows: Antimicrobial activity against Dialister pneumosintes by agar dilution method. Background: In agar dilution, organisms are placed on agar that contains the substance at set levels.
Assay [3] deals with Dialister pneumosintes. The experiment in a line: Antimicrobial activity against Dialister pneumosintes assessed as susceptibility breakpoint by CA-SFM method.
In assay [4] the test system is Dialister pneumosintes. The experiment in a line: Antimicrobial activity against Dialister pneumosintes assessed as susceptibility breakpoint by CLSI method.
Assay [5] has as its system Dialister invisus. The experiment in a line: Antimicrobial activity against Dialister invisus by agar dilution method.
Assay [6] has as its system Dialister propionicifaciens. The assay is described as follows: Antimicrobial activity against Dialister propionicifaciens by agar dilution method.
In assay [7] the test system is Dialister micraerophilus. The experiment in a line: Antimicrobial activity against Dialister micraerophilus assessed as susceptibility breakpoint by CLSI method.
Assay [8] relates to Dialister micraerophilus. The assay is described as follows: Antimicrobial activity against Dialister micraerophilus by agar dilution method.
The subject of assay [9] is Dialister micraerophilus. The experiment in a line: Antimicrobial activity against Dialister micraerophilus assessed as susceptibility breakpoint by CA-SFM method.
Assay [10] has as its system Dialister invisus. The experiment in a line: Antimicrobial activity against Dialister invisus assessed as susceptibility breakpoint by CA-SFM method.
Assay [11] has as its system Dialister propionicifaciens. The experiment in a line: Antimicrobial activity against Dialister propionicifaciens assessed as susceptibility breakpoint by CLSI method.
The test system of assay [12] is Dialister propionicifaciens. The experiment in a line: Antimicrobial activity against Dialister propionicifaciens assessed as susceptibility breakpoint by CA-SFM method.

As to `O=C(N[C@H](CO)[C@H](O)c1ccc([N+](=O)[O-])cc1)C(Cl)Cl` [CHLORAMPHENICOL], the Activity result in assay [1], in [3], in [4], in assay [7], in assay [9] and in assay [10] was “<=8 ug ml-1” throughout. Further, the Activity entry in assay [11] and in [12] was “<=8 ug ml-1” in each case. Also, the MIC in assay [2], in assay [5], in [6] and in assay [8] was 0.25 µg/mL (≈ 0.774 µM) each time. For the same compound, the MIC50 in assay [2] and in [8] was 0.25 µg/mL (≈ 0.774 µM) throughout. Further, the MIC90 (as a rule, an inhibitory concentration at the 90% level, which refers to growth in some studies and to a panel of isolates in others) in assay [2] worked out at 0.5 µg/mL (≈ 1.55 µM); in [8], 1 µg/mL (≈ 3.09 µM).
As for `CCC[C@@H]1C[C@@H](C(=O)N[C@@H]([C@H]2O[C@H](SC)[C@H](O)[C@@H](O)[C@H]2O)[C@H](C)Cl)N(C)C1` [CLINDAMYCIN], the Activity result in assay [1], in [3], in [4], in assay [7], in [9] and in assay [10] was “<=2 ug ml-1” throughout. For the same compound, the Activity entry in assay [11] and in assay [12] was “<=2 ug ml-1” throughout. Besides, the minimum inhibitory concentration (MIC) in assay [2], in assay [5], in [6] and in [8] was 0.125 µg/mL (≈ 0.294 µM) each time. The MIC50 in assay [2] and in [8] was 0.125 µg/mL (≈ 0.294 µM) throughout. Besides, the MIC90 in assay [2] and in [8] was 0.125 µg/mL (≈ 0.294 µM) in each case.
As to `C[C@@H](O)[C@H]1C(=O)N2C(C(=O)O)=C(SCCNC=N)C[C@H]12` [IMIPENEM ANHYDROUS], the Activity result in assay [1], in assay [3], in [4], in assay [7], in assay [9] and in assay [10] was “<=4 ug ml-1” each time. Further, the Activity entry in [11] and in assay [12] was “<=4 ug ml-1” each time. The MIC (in general, the lowest concentration that inhibits growth of the organism) in assay [2] is at most 0.06 µg/mL; in assay [5], 0.06 µg/mL (≈ 0.2 µM); in assay [6], at most 0.06 µg/mL. Also, the MIC50 (usually the lowest concentration that inhibits either 50% of growth or 50% of the strains tested, depending on the study) in [2] was at most 0.06 µg/mL; in assay [8], 0.06 µg/mL (≈ 0.2 µM). Also, the MIC90 in assay [2] is 0.25 µg/mL (≈ 0.835 µM); in [8], at most 0.06 µg/mL.
Turning to `Cc1ncc([N+](=O)[O-])n1CCO` [METRONIDAZOLE], the Activity result in assay [1] is listed as “<=8 ug ml-1”; in [3], “<=2 ug ml-1”; in assay [4], “<=8 ug ml-1”; in [7], “<=8 ug ml-1”; in assay [9] it was “<=2 ug ml-1”; in [10] it was “<=2 ug ml-1”. Moreover, the Activity result in assay [11] is “<=8 ug ml-1”; in assay [12], “<=2 ug ml-1”. The minimal inhibitory concentration (MIC) in assay [2] stood at 1 µg/mL (≈ 5.84 µM); in [5], 2 µg/mL (≈ 11.7 µM); in [6], 1 µg/mL (≈ 5.84 µM); in [8] it was 1 µg/mL (≈ 5.84 µM). The MIC50 came out at 4 µg/mL (≈ 23.4 µM) in assay [2] and 2 µg/mL (≈ 11.7 µM) in assay [8]. Also, the MIC90 in assay [2] and in [8] was 8 µg/mL (≈ 46.7 µM) in each case.
For the compound `CCN1CCN(C(=O)N[C@@H](C(=O)N[C@@H]2C(=O)N3[C@@H]2SC(C)(C)[C@@H]3C(=O)O)c2ccccc2)C(=O)C1=O` [PIPERACILLIN], the Activity result in assay [1] is listed as “<=32 ug ml-1”; in assay [3], “<=8 ug ml-1”; in [4], “<=32 ug ml-1”; in [7] it was “<=32 ug ml-1”; in assay [9], “<=8 ug ml-1”; in [10], “<=8 ug ml-1”. The results for the Activity result in [11] and in assay [12] were “<=32 ug ml-1” and “<=8 ug ml-1”, respectively. The MIC in assay [2] is at most 0.125 µg/mL; in assay [5], 0.125 µg/mL (≈ 0.242 µM); in assay [6], 0.125 µg/mL (≈ 0.242 µM). For the same compound, the figures for the MIC50 in [2] and in [8] were 1 µg/mL (≈ 1.93 µM) and 0.125 µg/mL (≈ 0.242 µM), respectively. Besides, the MIC90 came out at 16 µg/mL (≈ 30.9 µM) in assay [2] and 1 µg/mL (≈ 1.93 µM) in [8].
As to `CC1(C)S[C@@H]2[C@H](NC(=O)[C@H](C(=O)O)c3ccsc3)C(=O)N2[C@H]1C(=O)O` [TICARCILLIN], the Activity entry in assay [1] is “<=32 ug ml-1”; in assay [3], “<=16 ug ml-1”; in assay [4] it was “<=32 ug ml-1”; in assay [7] it was “<=32 ug ml-1”; in assay [9], “<=16 ug ml-1”; in assay [10], “<=16 ug ml-1”. For the same compound, the Activity entry is “<=32 ug ml-1” in [11] and “<=16 ug ml-1” in assay [12]. Further, the MIC was at most 0.06 µg/mL in assay [2], 0.25 µg/mL (≈ 0.65 µM) in assay [5], at most 0.06 µg/mL in [6] and at most 0.06 µg/mL in assay [8]. In addition, the MIC50 in [2] was 0.25 µg/mL (≈ 0.65 µM); in assay [8], at most 0.06 µg/mL. The MIC90 in [2] was 2 µg/mL (≈ 5.2 µM); in assay [8] it was 0.5 µg/mL (≈ 1.3 µM).
